Here are results for one molecule from US20040077618A1, “Cycloalkylamides and their therapeutic applications” (priority 2002, published 2004).

For orientation: ED50 means the dose that gives a 50% effect, or the effect in half of the subjects.

Structures are written as SMILES.

In assay [1] the test system is CD-1 mice. As to the kind of experiment: Subcutaneous pentylenetetrazole (PTZ) seizure procedure. The settings on record: Mus musculus; PTZ 85 mg/kg subcutaneous; oral pretreatment 30 minutes prior; observed 15 minutes; linear regression; male CD-1 mice; read-out: ED50 (dose at which 50% of the mice were protected from tonic seizures). The class given is in vivo. As for the experimental part:
(§1) Adult, male, CD-1 mice (22-25 grams) were obtained from Charles River Laboratories (Portage, Mich.) and housed at Abbott Laboratories (Abbott Park) under standard lighting conditions of 12 hours on/12 hours off, with lights on at 6 a.m. Food and water were provided ad libitum and mice weighed 25-35 grams at the time of testing.
(§2) Compounds were prepared for oral administration by suspending them in a vehicle of 100 uL Tween® 80 per mL hydroxypropyl methylcellulose (2 mg/mL, Abbott Laboratories). Compound solutions were administered at a volume of 10 mL/kg, p.o.
The method used was similar to that of E. A. Swinyard, General principles: Experimental selection, quantification and evaluation of anti-convulsants, Anti-epileptic Drugs, Third Edition, R. Levey, et al., Editors. 1989, Raven Press Ltd: New York. During the experiment the mice were housed individually in clear polycarbonate cages for observation. […] Seizures were induced by the subcutaneous injection of pentylenetetrazole (PTZ, 85 mg/kg) just below the nape of the neck. […] A total of 20 mice were used in each group. The ED50 for the compounds were calculated using linear regression and represent the dose at which 50% of the mice were protected from tonic seizures.

In assay [2] the test system is CD-1 mice. As to the kind of experiment: Maximal electroshock procedure (protection from tonic seizures). The class given is in vivo. The settings on record: Mus musculus, corneal electrodes 50 mA 0.4 second, oral pretreatment 30 minutes prior, PROBIT analysis, male CD-1 mice, read-out: ED50 (dose at which 50% of the mice were protected from tonic seizures). As for the experimental part:
as §1, §2
The method used was similar to that of E. A. Swinyard, General principles: Experimental selection, quantification and evaluation of anti-convulsants, Anti-epileptic Drugs, Third Edition, R. Levey, et al., Editors. 1989, Raven Press Ltd: New York. Mice were pretreated orally with compounds of the present invention 30 minutes prior to electrical stimulation. Electrical stimulation consisted of pulsed electrical current (50 mA, 0.4 second duration, pulse width 0.5 msec, 60 pulses/sec) applied via corneal electrodes to induce seizure. The stimulation was delivered with an ECT Unit (Ugo Basile #7801). […] The percent protection from tonic seizures was calculated by dividing the number of protected mice by the total number in the group. […]
Background: The maximal electroshock test induces tonic seizures with an electrical stimulus.

`CCCC(CCC)C(=O)O` [Valproate]: the median effective dose (ED50) was 1800 µmol/kg with CD-1 mice [1] and 1200 µmol/kg in the assay on CD-1 mice [2].
